Data taken from EPA's ToxRefDB 2.

How the values were obtained:
rabbit = conditions: Prenatal developmental toxicity study; new zealand white; Oral; Gavage/Intubation; dose end: 18 GD; group: maternal; systemic / in life observation / body weight / body weight + systemic / in life observation / body weight / body weight gain + systemic / in…
rat [1] = conditions: Developmental neurotoxicity study; sprague dawley; Oral; Gavage/Intubation; dose end: 68 PND; group: cannot be grouped; systemic / in life observation / mortality / mortality
rat [2] = conditions: Neurotoxicity screening battery; fischer; Inhalation; Whole-Body; dose end: 1 day; group: cannot be grouped; systemic / in life observation / clinical signs / abnormal gait + systemic / in life observation / clinical signs / body temperature + …
rat [3] = conditions: Subchronic inhalation toxicity, fischer, Whole-Body, dose end: 13 week, group: systemic
mouse [4] = conditions: Subchronic inhalation toxicity, cd1, Whole-Body, dose end: 13 week, group: systemic
rat [5] = conditions: Prenatal developmental toxicity study, Sprague-Dawley, Oral, Gavage/Intubation, dose end: 15 GD
rat [6] = conditions: Carcinogenicity, fischer, Inhalation, Whole-Body, dose end: 104 week, group: systemic
dog = conditions: Chronic toxicity, beagle, Oral, Feed, dose end: 12 month, group: systemic
mouse [7] = conditions: Carcinogenicity, cd1, Oral, Feed, dose end: 78 week, group: systemic
rat [8] = conditions: Subchronic oral toxicity in rodents, sprague dawley, Feed, dose end: 13 week, group: systemic
rat [9] = conditions: Combined chronic toxicity/carcinogenicity, other, Oral, Feed, dose end: 24 month, group: systemic
rat [10] = conditions: Multigenerational reproductive toxicity study, sprague dawley, Oral, Feed, dose end: 2 generation
[11] = systemic / in life observation / clinical signs / reduced activity
[12] = systemic / in life observation / clinical signs / reduced activity + systemic / hematology / erythrocyte (rbc) count differential / …
[13] = systemic / in life observation / body weight / body weight + systemic / in life observation / body weight / body weight gain + systemic / in…
[14] = group: developmental, systemic / in life observation / body weight / fetal weight
[15] = group: maternal, systemic / in life observation / body weight / body weight gain + systemic / in life observation / mortality / mortality + systemic / organ …
[16] = systemic / pathology microscopic / testes / adenoma
[17] = systemic / pathology microscopic / liver / pigmentation
[18] = systemic / pathology microscopic / liver / pigmentation + systemic / pathology microscopic / liver / hypertrophy
[19] = systemic / organ weight / liver / absolute + systemic / organ weight / liver / relative to body weight + systemic / pathology microscopic / …
[20] = systemic / pathology microscopic / kidney / mineralization
[21] = systemic / organ weight / liver / relative to body weight
[22] = systemic / organ weight / liver / absolute
[23] = group: offspring, systemic / in life observation / body weight / offspring (pup) weight
[24] = group: parental, systemic / in life observation / body weight / body weight

CC(C)O [Isopropanol]
LEL (rabbit): 480 mg/kg/day
LOAEL (rabbit): > 480 mg/kg/day
NEL (rabbit): 240 mg/kg/day
NOAEL (rabbit): ≥ 480 mg/kg/day
LEL (rat [1]): 1200 mg/kg/day
LOAEL (rat [1]): 1200 mg/kg/day
NEL (rat [1]): 700 mg/kg/day
NOAEL (rat [1]): 700 mg/kg/day
LEL (rat [2]): 5000 ppm
LOAEL (rat [2]): > 10000 ppm
NEL (rat [2]): 1500 ppm
NOAEL (rat [2]): ≥ 10000 ppm
LEL (rat [3]; [11]): 500 ppm
NEL (rat [3]; [11]): < 500 ppm
LOAEL (rat [3]; [12]): > 5000 ppm
NOAEL (rat [3]; [12]): ≥ 5000 ppm
LOAEL (mouse [4]; [13]): > 5000 ppm
NEL (mouse [4]; [13]): 500 ppm
NOAEL (mouse [4]; [13]): ≥ 5000 ppm
LEL (mouse [4]; systemic / in life observation / clinical signs / ataxia + systemic / in life observation / clinical signs / lethargy + systemic / in life …): 1500 ppm
LEL (rat [5]; [14]): 800 mg/kg/day
LOAEL (rat [5]; [14]): > 1200 mg/kg/day
NEL (rat [5]; [14]): 400 mg/kg/day
NOAEL (rat [5]; [14]): ≥ 1200 mg/kg/day
LOAEL (rat [5]; [15]): > 1200 mg/kg/day
NEL (rat [5]; [15]): 400 mg/kg/day
NOAEL (rat [5]; [15]): ≥ 1200 mg/kg/day
LEL (rat [5]; group: maternal, systemic / in life observation / mortality / mortality): 800 mg/kg/day
LOAEL (rat [6]; [13]): 2500 ppm
NOAEL (rat [6]; [13]): 500 ppm
LEL (rat [6]; [16]): 500 ppm
NEL (rat [6]; [16]): < 500 ppm

CCCCC(CC)CN1C(=O)C2C3C=CC(C3)C2C1=O (centres undefined) [MGK-264]
NEL (dog; [17]): 7.5 mg/kg/day
NOAEL (dog; [17]): 7.5 mg/kg/day
LEL (dog; [18]): 33.7 mg/kg/day
LOAEL (dog; [18]): 33.7 mg/kg/day
LOAEL (mouse [7]; [19]): 396 mg/kg/day
NOAEL (mouse [7]; [19]): 49.5 mg/kg/day
LEL (mouse [7]; [20]): 49.5 mg/kg/day
NEL (mouse [7]; [20]): < 49.5 mg/kg/day
LOAEL (rat [8]; systemic / organ weight / liver / absolute + systemic / organ weight / liver / relative to body weight): 260 mg/kg/day
NOAEL (rat [8]; systemic / organ weight / liver / absolute + systemic / organ weight / liver / relative to body weight + systemic / clinical chemistry / …): 130 mg/kg/day
LEL (rat [8]; [21]): 140 mg/kg/day
NEL (rat [8]; [21]): < 140 mg/kg/day
LEL (rat [9]; [22]): 50 mg/kg/day
NEL (rat [9]; [22]): < 50 mg/kg/day
NOAEL (rat [9]; systemic / pathology microscopic / liver / hypertrophy + systemic / pathology microscopic / liver / proliferation + systemic / in life …): 50 mg/kg/day
LOAEL (rat [9]; systemic / pathology microscopic / liver / hypertrophy + systemic / pathology microscopic / liver / proliferation + systemic / organ weight…): 150 mg/kg/day
LEL (rat [10]; [23]): 61 mg/kg/day
LOAEL (rat [10]; [23]): 61 mg/kg/day
NEL (rat [10]; [23]): < 61 mg/kg/day
NOAEL (rat [10]; [23]): < 61 mg/kg/day
LEL (rat [10]; [24]): 61 mg/kg/day
NEL (rat [10]; [24]): < 61 mg/kg/day
